The values below come from ChEMBL document CHEMBL1158014, “Calamistrins A and B, two new cytotoxic monotetrahydrofuran annonaceous acetogenins from Uvaria calamistrata” (J Nat Prod, 1999).

Converted amounts (≈) assume the structure as drawn.

What all share (assay type): functional, cell-based
The test system of one experiment is HCT-8. The experiment can be described thus: Cytotoxicity against human HCT8 cells after 5 days by MTT assay. Conditions: HCT-8, 120 h.
A further experiment relates to KB. The experiment can be described thus: Cytotoxicity against human KB cells after 5 days by MTT assay. Conditions: 120 h. (In general: Tetrazolium assays rely on reduction of a dye to a coloured formazan, in cell work by metabolically active cells.)
The subject of another experiment is A2780. The experiment can be described thus: Cytotoxicity against human A2780 cells after 5 days by MTT assay. Conditions: A2780, 120 h.

The term IC50 denotes the concentration needed to halve the response being measured. The low end stands for higher potency, the high end for lower potency. `CCCCCCCCCCCC[C@H](O)[C@H]1CC[C@H]([C@H](O)C[C@@H](O)CCCCCCCCCCCCC2=C[C@H](C)OC2=O)O1` [CALAMISTRIN A]: the figures for the IC50 in the experiment with HCT-8, in the experiment on KB and in the experiment on A2780 were 0.37 µg/mL (≈ 0.608 µM), 2 µg/mL (≈ 3.28 µM) and 1.4 µg/mL (≈ 2.3 µM), respectively.

Turning to `CCCCCCCCCCCC[C@H](O)[C@H]1CC[C@H]([C@@H](C[C@H](O)CCCCCCCCCCCCC2=C[C@H](C)OC2=O)OC(C)=O)O1` [CALAMISTRIN B], the half-inhibitory concentration (IC50) in the experiment with HCT-8 is 0.022 µg/mL (≈ 0.0338 µM); with KB, 6.1 µg/mL (≈ 9.37 µM); in the experiment with A2780, 3.1 µg/mL (≈ 4.76 µM).
